Measurements reported in PMC5225183, “Fingerprinting of neurotoxic compounds using a mouse embryonic stem cell dual luminescence reporter assay” (Archives of Toxicology, 2016).
Like-named read-outs stand apart in the source and are kept apart here. Marks after values point to notes of the source that are not given here. Square brackets hold non-standard residues; d marks the D form. Peptide text beside a SMILES is read from it. * marks the point of attachment. Fmoc = O=C(OCC1c2ccccc2-c2ccccc21)*; Cha = N[C@@H](CC1CCCCC1)C(=O)O; AMC = Cc1cc(=O)oc2cc(N*)ccc12

Columns and labels:
[1] = system: Tubulin α1 (Tα1) promoter; assay: cells
Description: (§1) Dual luciferase expressing CGR8-2Luc cells were obtained by transduction of mouse ESC CGR8 cells with the 2K7 EFS-Renilla Luciferase (RLuc)/Talpha1-Firefly Luciferase (FLuc) vector as previously described (Suter et al. [2006], [2009]); EFS corresponds to the short promoter of the eukaryotic translation elongation factor 1 alpha (EF1α), and Talpha1 to the Tubulin α1 (Tα1) promoter. Tα1 was selected as a promoter active in neurons, including early stages of neural differentiation. EF1α was originally selected to function as a constitutive promoter; however, it responds to cellular differentiation as well as to various chemicals, as previously shown (Kern et al. [2013]). Cells were cultured on 0.1 % gelatin-coated dishes in CGR8-2luc maintenance medium: BHK21 medium, supplemented with 10 % fetal calf serum, L-glutamine, non-essential amino acids, penicillin/streptomycin, and leukemia inhibitory factor (LIF). CGR8 cells were grown in a feeder-independent manner (embryonic pluripotent stem cells, ESCs) as described in protocol 1 (Fig. 1) before testing compounds of interest.
(§2) Fig. 1 Synopsis of experimental protocols. The impact of compounds on neural promoter activity (FLuc, Firefly Luciferase under the control of the Tα1 promoter), general promoter activity (RLuc, Renilla Luciferase under the control of the EF1α promoter), and amount of DNA (PI, propidium iodide fluorescence in cell homogenates) was investigated in undifferentiated mouse embryonic pluripotent stem cells (ESCs) and on ESC-derived neurons. Arrows indicate the time of measurement of the three parameters. a Protocol for testing compounds effects on ESCs. CGR8-2Luc cells were plated on gelatin-coated 96-well plates in maintenance medium (BHK21 medium containing 10 % FCS, L-glutamine, NEAA, P/S, and LIF). Twenty-four hours later, cells were exposed to compounds for forty-eight hours. b Protocol for testing compounds on ESC-derived neurons. CGR8-2Luc cells were co-cultured with MS5 cells to induce neural differentiation in DMEM medium containing 15 % KO-serum, NEAA, β-mercaptoethanol, and P/S. On day 5, cells were detached and seeded on polyornithine-coated plates in DMEM medium containing N2 supplement, bFGF, and P/S; compound exposure was from day 6 to day 8
(§3) To test compounds on ESC-derived neurons, neuronal differentiation was carried out as previously described (Suter et al. [2009]; Xu et al. [2014]). Briefly, CGR8-2Luc cells were seeded on irradiated bone marrow-derived stromal MS5 cells and cultivated for 4 days in DMEM medium containing 15 % Knock-out™ Serum Replacement, non-essential amino acids, beta-mercaptoethanol, and penicillin/streptomycin. At day 5, cells were then re-plated (3 × 10^5 cells/cm^2) on polyornithine-coated 96-well plates in N2 medium containing DMEM, N2 supplement, penicillin/streptomycin, and 10 ng/ml basic human fibroblast growth factor (bFGF) (Invitrogen). […] To assess toxicity of compounds on undifferentiated pluripotent stem cells (ESCs), CGR8-2Luc cells were plated at 45,000 cells/cm^2 on 0.1 % gelatin-coated dishes in BHK21 medium, supplemented with 10 % fetal calf serum, L-glutamine, non-essential amino acids, penicillin/streptomycin, and leukemia inhibitory factor (LIF). After 24 h, compounds were added and incubated for 48 h, before luciferase expression and PI fluorescence were analyzed. In all experiments, methylmercury was used as a positive control at a concentration of 5 µM.
(§4) Luciferase activities were measured with a Dual-Luciferase™ Reporter system kit. CGR8-2Luc ES cells were lysed in 96-well plates according to the manufacturer’s instructions. Luminescence measurements were performed on a Fluostar Optima reader. Luminescence counts were expressed as percentage of promoter activity normalized by comparison with the control wells treated by DMSO.

[2] = system: Tubulin α1 (Tα1) promoter
Description: as §1, §2, §3, §4

[3] = system: EF1α promoter
Description: as §1, §2, §3, §4

[4] = cited from earlier work
[5] = system: ESCs and ESC-derived neurons; assay: Dual luminescence reporter test system, all readouts in ESCs and ESC-derived neurons
Description: as §2, with “neurons.” for “neurons. CGR8-2Luc cells were co-cultured with MS5 cells to induce neural differentiation in DMEM medium containing 15 % KO-serum, NEAA, β-mercaptoethanol, and P/S. On day 5, cells were detached and seeded on polyornithine-coated plates in DMEM medium containing N2 supplement, bFGF, and P/S; compound exposure was from day 6 to day 8”
as §3, with “At” for “To test compounds on ESC-derived neurons, neuronal differentiation was carried out as previously described (Suter et al. [2009]; Xu et al. [2014]). Briefly, CGR8-2Luc cells were seeded on irradiated bone marrow-derived stromal MS5 cells and cultivated for 4 days in DMEM medium containing 15 % Knock-out™ Serum Replacement, non-essential amino acids, beta-mercaptoethanol, and penicillin/streptomycin. At”
Luciferase activities were measured with a Dual-Luciferase™ Reporter system kit. CGR8-2Luc ES cells were lysed in 96-well plates according to the manufacturer’s instructions. Luminescence measurements were performed on a Fluostar Optima reader. Luminescence counts were expressed as percentage of promoter activity normalized by comparison with the control wells treated by DMSO. […] parameters were measured in homogenates of ESCs and in ESC-derived neurons: (1) FLuc, reflecting the activity of early neural promoter Tα1. FLuc increases during neuronal differentiation. Many neurotoxic compounds may affect FLuc expression, either through impact on neuronal differentiation, through changes of neuronal gene expression, or through killing of neurons.
(§5) PI was added to cell homogenates after the luciferase test, at a final concentration of 50 µg/ml and incubated for 2 h. After incubation, fluorescence intensity was measured on a Flexstation 3 microplate reader (Excitation: 544 nm ± 15 nm; Emission: 620 nm ± 15 nm). Results are expressed as percentage of control. Propidium iodide (PI) measures total DNA content as an approximation of the cell number. A decrease in PI fluorescence was interpreted as a decrease in cell number and therefore throughout the text referred to as cytotoxicity.
To describe the shape of different concentration–response curves, arbitrary scores were assigned as follows: 0 for “no change,” 1 for “down-stroke,” 2 for “bimodal profile,” and 3 for “up-stroke” (Fig. S1). A curve was classified as “down-stroke” or “up-stroke” if the change in response values comparative to control was statistically significant (p value <0.05, one-way ANOVA with post hoc Dunnett) with an additional requirement of a 30 % decrease or increase of mean response value relative to controls, respectively. If the absolute change in mean response values was below 30 % the curve was classified as “no change.” A curve was classified as “bimodal” if first up-stroke and subsequently down-stroke was observed.

[6] = system: CGR8-2Luc ESCs
Description: as §2, §3
as §5, with “After measurement of luciferase activity, DNA quantity was determined by PI assay, as previously described (Xu et al. [2014]). PI was” for “PI was”
(§6) Lowest adverse effect level (LOAEL) was defined as the lowest tested concentrations that lead to a statistically significant decrease for a given read-out (FLuc, RLuc, and PI) compared to baseline. “Baseline” was not in all cases defined by untreated cells, but may also refer to, e.g., a state of increased activity due to low, non-toxic compound concentrations.

[7] = system: ESC-derived neurons
Description: as §2, §3
as §5, with “After measurement of luciferase activity, DNA quantity was determined by PI assay, as previously described (Xu et al. [2014]). PI was” for “PI was”
as §6

[8] = ESC-derived neurons, 48 h exposure
[9] = undifferentiated ESCs, 48 h exposure, lowest tested concentration with statistically significant decrease
[10] = undifferentiated ESCs, 48 h exposure
[11] = undifferentiated ESCs, 48 h exposure, PI assay (cytotoxicity)
[12] = ESC-derived neurons, 48 h exposure, PI assay (cytotoxicity)
[13] = reporter activity changes in the non-cytotoxic concentration range, highest possible number 4

Molecule	LOAEL Neurons Tα1 [1, 8]	LOAEL ESC Tα1 [2, 9]	LOAEL Neurons EF1α [3, 8]	LOAEL ESC EF1α [3, 10]	Concentration in humans ([4]; ref Zimmer et al. ([2014]))	Number of non-cytotoxic changes ([5]; mouse, 48 h)	LOAEL ESC DNA [6, 11]	LOAEL Neurons DNA [7, 12]	LOAEL Neurons Tα1 ([1]; ESC-derived neurons, 48 h exposure, listed as amiodarone)	result in the dual luminescence reporter test system [5]	Number of non-cytotoxic changes [5, 13]	Concentration in humans ([4]; ref Dewland et al. ([2009]))	LOAEL Neurons Tα1 ([1]; mouse)	LOAEL ESC Tα1 ([2]; mouse)	LOAEL ESC EF1α ([3]; mouse)	LOAEL Neurons EF1α ([3]; mouse)	result in the dual luminescence reporter test system ([5]; ESCs and neurons, FLuc, RLuc, PI)	LOAEL ESC DNA ([6]; mouse)	LOAEL Neurons DNA ([7]; mouse)
COCCCOc1cc(C[C@@H](C[C@H](N)[C@@H](O)C[C@H](C(=O)NCC(C)(C)C(N)=O)C(C)C)C(C)C)ccc1OC [Aliskiren]	>50 µM	>50 µM	>50 µM	>50 µM	0.33^k µM	0	>50 µM	>50 µM											
CCCCc1oc2ccccc2c1C(=O)c1cc(I)c(OCCN(CC)CC)c(I)c1 [Amiodarone]	50 µM					1			5 µM										
CC(C1CC1)C(O)(Cn1cncn1)c1ccc(Cl)cc1 (centres unmarked) [Cyproconazole]	>50 µM	>50 µM	>50 µM	>50 µM		0	>50 µM	>50 µM		did not give a signal									
COc1cccc2c1C(=O)c1c(O)c3c(c(O)c1C2=O)C[C@@](O)(C(=O)CO)C[C@@H]3O[C@H]1C[C@H](N)[C@H](O)[C@H](C)O1 [Doxorubicin]	0.005 µM	0.005 µM	0.005 µM	0.005 µM		0	0.005 µM	0.005 µM		strongly decreased the neuronal and general reporter activities, as well as the cell number									
Cc1cc(=O)oc2cc(NC(=O)[C@H](CCCCN)NC(=O)[C@H](CC3CCCCC3)NC(=O)OCC3c4ccccc4-c4ccccc43)ccc12 [Galnon] (Fmoc-[Cha]-Lys-{AMC})	5 µM	20 µM	5 µM	20 µM			20 µM	>20 µM			2								
CC(C)Cc1ccc(C(C)C(=O)O)cc1 (centres unmarked) [Ibuprofen]	>50 µM	>50 µM	>50 µM	>50 µM		0	>50 µM	>50 µM		negative		150^a µM							
Cc1ccc(NC(=O)c2ccc(CN3CCN(C)CC3)cc2)cc1Nc1nccc(-c2cccnc2)n1 [Imatinib]	10 µM	10 µM	10 µM	>10 µM		3	>10 µM	>10 µM											
CCCc1nn(C)c2c(=O)[nH]c(-c3cc(S(=O)(=O)N4CCN(C)CC4)ccc3OCC)nc12 [Sildenafil]	>50 µM	>50 µM	>50 µM	>50 µM		0	>50 µM	>50 µM											
N[C@@H](CC(=O)N1CCn2c(nnc2C(F)(F)F)C1)Cc1cc(F)c(F)cc1F [Sitagliptin]	>50 µM	>50 µM	>50 µM	>50 µM	1.9^k µM	0	>50 µM	>50 µM											
CC(C)(C)C(=O)C(Oc1ccc(Cl)cc1)n1cncn1 (centres unmarked) [Triadimefon]										relatively weak responses			>50 µM	50 µM	>50 µM	50 µM	potentially neurotoxic	>50 µM	>50 µM
Exenatide	>0.02 µM	>0.02 µM	>0.02 µM	>0.02 µM			>0.02 µM	>0.02 µM			0								
